# Measurements published in ChEMBL document CHEMBL1126229, “Enol lactone derivatives as inhibitors of human neutrophil elastase and trypsin-like proteases” (Bioorg Med Chem Lett, 1992).
# Columns and labels:
# [1] = target: T1, Neutrophil elastase (Homo sapiens) (UniProt P08246); test: Rate constant of acylation on human neutrophil elastase was determined at 30 percent and at 80 minutes for maximum inhibition and no enzyme activity was recovered over the 2 h-time
# T1 sequence (whole entry): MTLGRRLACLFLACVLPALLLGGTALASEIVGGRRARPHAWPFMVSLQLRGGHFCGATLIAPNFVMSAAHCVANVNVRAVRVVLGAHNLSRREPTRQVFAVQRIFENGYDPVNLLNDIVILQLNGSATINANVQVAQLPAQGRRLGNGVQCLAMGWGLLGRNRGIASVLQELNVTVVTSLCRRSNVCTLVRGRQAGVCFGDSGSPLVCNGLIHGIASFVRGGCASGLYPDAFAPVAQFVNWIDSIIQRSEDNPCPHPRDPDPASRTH
# [2] = target: T1, Neutrophil elastase (Homo sapiens); test: Specificity constant on human neutrophil elastase was determined at 30 percent and at 80 minutes for maximum inhibition and no enzyme activity was recovered over the 2 h-time
# [3] = target: T2, Chymotrypsin-like elastase family member 2A (Sus scrofa) (UniProt P08419); test: Binding constant on porcine pancreatic elastase was determined at 30 percent and at 99 minutes for maximum inhibition and no enzyme activity was recovered over the 2 h-time
# T2 sequence (whole entry): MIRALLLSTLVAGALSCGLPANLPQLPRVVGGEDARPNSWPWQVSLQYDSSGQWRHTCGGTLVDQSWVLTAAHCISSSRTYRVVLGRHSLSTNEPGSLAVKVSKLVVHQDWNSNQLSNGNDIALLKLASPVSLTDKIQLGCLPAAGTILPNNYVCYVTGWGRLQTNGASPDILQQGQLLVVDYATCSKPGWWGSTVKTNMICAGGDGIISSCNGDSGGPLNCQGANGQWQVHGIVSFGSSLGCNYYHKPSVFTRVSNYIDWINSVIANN
# Serine protease 1 [4] = target: T3, Serine protease 1 (Homo sapiens, UniProt P07477); test: Specificity constant on trypsin was determined at 10 percent and at 83 minutes for maximum inhibition and no enzyme activity was recovered over the 2 h-time
# T3 sequence (P07477 whole entry): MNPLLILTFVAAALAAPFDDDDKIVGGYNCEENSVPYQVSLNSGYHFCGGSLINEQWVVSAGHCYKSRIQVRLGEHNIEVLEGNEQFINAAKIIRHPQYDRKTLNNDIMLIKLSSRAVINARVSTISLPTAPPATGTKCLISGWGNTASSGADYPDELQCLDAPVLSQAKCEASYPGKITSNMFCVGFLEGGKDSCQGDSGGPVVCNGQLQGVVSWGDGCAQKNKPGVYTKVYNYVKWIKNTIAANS
# [5] = target: T2, Chymotrypsin-like elastase family member 2A (Sus scrofa); test: Rate constant of acylation on porcine pancreatic elastase was determined at 30 percent and at 99 minutes for maximum inhibition and no enzyme activity was recovered over the 2 h-time
# [6] = target: Chymotrypsinogen A (Bos taurus) (UniProt P00766); test: Specificity constant on alpha-chymotrypsin was determined at 10 percent and at 98 minutes for maximum inhibition and no enzyme activity was recovered over the 2 h-time
# Serine protease 1 [7] = target: T3, Serine protease 1; test: Binding constant on trypsin was determined at 10 percent and at 83 minutes for maximum inhibition and no enzyme activity was recovered over the 2 h-time
# [8] = target: T1, Neutrophil elastase (Homo sapiens); test: Binding constant on human neutrophil elastase was determined at 30 percent and at 80 minutes for maximum inhibition and no enzyme activity was recovered over the 2 h-time
# Serine protease 1 [9] = target: T3, Serine protease 1; test: Rate constant of acylation on trypsin was determined at 10 percent and at 83 minutes for maximum inhibition and no enzyme activity was recovered over the 2 h-time
# [10] = target: Chymotrypsinogen A (Bos taurus) (UniProt P00766); test: Rate constant of acylation on alpha-chymotrypsin was determined at 10 percent and at 98 minutes for maximum inhibition and no enzyme activity was recovered over the 2 h-time
# [11] = target: T2, Chymotrypsin-like elastase family member 2A (Sus scrofa); test: Specificity constant on porcine pancreatic elastase was determined at 30 percent and at 99 minutes for maximum inhibition and no enzyme activity was recovered over the 2 h-time
# [12] = target: Chymotrypsinogen A (Bos taurus) (UniProt P00766); test: Binding constant on alpha-chymotrypsin was determined at 10 percent and at 98 minutes for maximum inhibition and no enzyme activity was recovered over the 2 h-time
# Chymotrypsinogen A = Chymotrypsinogen A (Bos taurus, UniProt P00766); test: Rate constant of deacylation for alpha-chymotrypsin; Fast and could not be measured
# Serine protease 1 [13] = target: T3, Serine protease 1
# [14] = target: Chymotrypsinogen A (Bos taurus) (UniProt P00766)
# Serine protease 1 [15] = target: T3, Serine protease 1; remark: listed apart in the source
# [16] = target: T4, Urokinase-type plasminogen activator (Homo sapiens, UniProt P00749)
# [17] = target: T4, Urokinase-type plasminogen activator; remark: listed apart in the source
# [18] = target: Chymotrypsinogen A (Bos taurus) (UniProt P00766); remark: listed apart in the source
# Serine protease 1 [19] = target: T3, Serine protease 1; test: Rate constant of deacylation for trypsin; Fast and could not be measured
# [20] = target: T4, Urokinase-type plasminogen activator; remark: listed apart in the source
# Description: Specificity constant on Urokinase-type plasminogen activator was determined at 0 percent and at 86 minutes for maximum inhibition and no enzyme activity was recovered over the 2 h-time
# [21] = target: Chymotrypsinogen A (Bos taurus) (UniProt P00766); remark: listed apart in the source
# Serine protease 1 [22] = target: T3, Serine protease 1; remark: listed apart in the source
# Description: Specificity constant on trypsin was determined at 0 percent and at 95 minutes for maximum inhibition and no enzyme activity was recovered over the 2 h-time
# [23] = target: Chymotrypsinogen A (Bos taurus) (UniProt P00766); test: Binding constant on alpha-chymotrypsin was determined at 45 percent and at 96 minutes for maximum inhibition and no enzyme activity was recovered over the 2 h-time
# [24] = target: T4, Urokinase-type plasminogen activator; test: Rate constant of deacylation for Urokinase-type plasminogen activator
# Serine protease 1 [25] = target: T3, Serine protease 1; test: Rate constant of deacylation for trypsin
# [26] = target: T4, Urokinase-type plasminogen activator; test: Binding constant on Urokinase-type plasminogen activator was determined at 0 percent and at 97 minutes for maximum inhibition and no enzyme activity was recovered over the 2 h-time
# Serine protease 1 [27] = target: T3, Serine protease 1; test: Rate constant of acylation on trypsin was determined at 0 percent and at 97 minutes for maximum inhibition with 45 minutes persistence of inhibition
# Serine protease 1 [28] = target: T3, Serine protease 1; test: Specificity constant on trypsin was determined at 0 percent and at 97 minutes for maximum inhibition with 45 minutes persistence of inhibition
# [29] = target: T4, Urokinase-type plasminogen activator; test: Rate constant of acylation on Urokinase-type plasminogen activator […] was determined at 0 percent and at 97 minutes for maximum inhibition and no enzyme activity was recovered over the 2 h-time
# [30] = target: T4, Urokinase-type plasminogen activator; test: Specificity constant on Urokinase-type plasminogen activator was determined at 0 percent and at 97 minutes for maximum inhibition and no enzyme activity was recovered over the 2 h-time
# Serine protease 1 [31] = target: T3, Serine protease 1; test: Binding constant on trypsin was determined at 0 percent and at 97 minutes for maximum inhibition with 45 minutes persistence of inhibition
# [32] = target: T4, Urokinase-type plasminogen activator; test: Rate constant of deacylation for Urokinase-type plasminogen activator; NM - Fast and could not be measured
# [33] = target: T1, Neutrophil elastase (Homo sapiens); test: Rate constant of acylation on human neutrophil elastase was determined at 20 percent and at 95 minutes for maximum inhibition and no enzyme activity was recovered over the 2 h-time
# [34] = target: T2, Chymotrypsin-like elastase family member 2A (Sus scrofa); test: Rate constant of acylation on porcine pancreatic elastase was determined at 15 percent and at 35 minutes for maximum inhibition with 0 minutes persistence of inhibition
# [35] = target: T1, Neutrophil elastase (Homo sapiens); test: Specificity constant on human neutrophil elastase was determined at 20 percent and at 95 minutes for maximum inhibition and no enzyme activity was recovered over the 2 h-time
# [36] = target: T2, Chymotrypsin-like elastase family member 2A (Sus scrofa); test: Binding constant on porcine pancreatic elastase was determined at 15 percent and at 35 minutes for maximum inhibition with 0 minutes persistence of inhibition
# [37] = target: T2, Chymotrypsin-like elastase family member 2A (Sus scrofa); test: Specificity constant on porcine pancreatic elastase was determined at 15 percent and at 35 minutes for maximum inhibition with 0 minutes persistence of inhibition
# [38] = target: T1, Neutrophil elastase (Homo sapiens); test: Binding constant on human neutrophil elastase was determined at 20 percent and at 95 minutes for maximum inhibition and no enzyme activity was recovered over the 2 h-time
smiles,measurement,setting,value
C=C1CCC(C(C)C)C(=O)O1 (stereo not given),ka,[1],13 min⁻¹
same,ka/Ki,[2],34700 M⁻¹ s⁻¹
same,Ks/i,[3],88 µM
same,ka/Ki,Serine protease 1 [4],333 M⁻¹ s⁻¹
same,ka,[5],0.42 min⁻¹
same,ka/Ki,[6],667 M⁻¹ s⁻¹
same,Ks/i,Serine protease 1 [7],24 µM
same,Ks/i,[8],6.25 µM
same,ka,Serine protease 1 [9],0.45 min⁻¹
same,ka,[10],3.2 min⁻¹
same,ka/Ki,[11],83.3 M⁻¹ s⁻¹
same,Ks/i,[12],89 µM
C=C1C[C@H](c2ccc(NC(=N)N)cc2)[C@@H](NC(=O)c2ccccc2)C(=C)O1,Kd,Chymotrypsinogen A,Not measurable
same,ka,Serine protease 1 [13],10.2 min⁻¹
same,Ks/i,[14],0.46 µM
same,Ks/i,Serine protease 1 [15],10 µM
same,ka,[16],4.83 min⁻¹
same,Ks/i,[17],6 µM
same,ka/Ki,[18],350000 M⁻¹ s⁻¹
same,Kd,Serine protease 1 [19],2.5e-05 s⁻¹
same,ka/Ki,[20],13300 M⁻¹ s⁻¹
same,ka,[21],9.51 min⁻¹
same,ka/Ki,Serine protease 1 [22],17000 M⁻¹ s⁻¹
N=C(N)Nc1ccc([C@H]2C/C(=C\I)OC(=O)[C@@H]2NC(=O)c2ccccc2)cc1,Ks/i,[23],0.17 µM
same,Kd,[24],1.3e-05 s⁻¹
same,Kd,Serine protease 1 [25],8.3e-05 s⁻¹
C=C1CCC(c2ccc(NC(=N)N)cc2)C(=O)O1 (stereo not given),Ks/i,[26],0.33 µM
same,ka,Serine protease 1 [27],14.3 min⁻¹
same,ka/Ki,Serine protease 1 [28],1.03e+06 M⁻¹ s⁻¹
same,ka,[29],391 min⁻¹
same,Kd,Serine protease 1 [19],Not measurable
same,ka/Ki,[30],1.98e+07 M⁻¹ s⁻¹
same,Ks/i,Serine protease 1 [31],0.23 µM
same,Kd,[32],Not measurable
C/C(Br)=C1/CCC(C(C)C)C(=O)O1 (stereo not given),ka,[33],0.81 min⁻¹
same,ka,[34],1.12 min⁻¹
same,ka/Ki,[35],4500 M⁻¹ s⁻¹
same,Ks/i,[36],48.7 µM
same,ka/Ki,[37],333 M⁻¹ s⁻¹
same,Ks/i,[38],3 µM
